Counter-ions that a name gives are not always drawn.
What was measured:
[1] = tested on: S. pneumoniae strain TIGR4; test: Streptococcus pneumoniae infection in mice, survival by defined mortality-endpoint; format: in vivo; details: C57BL/6 mice, 0.2 mg/kg intranasal twice daily for eleven days, infected intranasally with 1×10^7 CFU S. pneumoniae TIGR4; n=60; Mantel-Cox **p<0.005
Procedure: (§1) Germ-free C57BL/6 male and female mice aged 10-12 weeks were intranasally administered with 0.2% Tween-80/saline vehicle or 0.2 mg/kg micronized 6-(1H-indol-4-yl)-4-(5-{[4-(1-methylethyl)-1-piperazinyl]methyl}-1,3-oxazol-2-yl)-1H-indazole hydrochloride in the same vehicle. Compound dosing was carried out twice daily for eleven days under anaesthesia using 3% isoflurane for induction and 2% isoflurane for maintenance. At the start of day two, and one hour after administering 6-(1H-indol-4-yl)-4-(5-{[4-(1-methylethyl)-1-piperazinyl]methyl}-1,3-oxazol-2-yl)-1H-indazole hydrochloride or vehicle, mice were anaesthetized with isoflurane as above and infected intranasally with 1×10^7 CFU of S. pneumoniae strain TIGR4. S. Pneumoniae was obtained and prepared as described previously (see, for example, Infect. Immun. December 2011; 79(12): 4965-4976) and given in an inoculum of 50 μl PBS per mouse. Mice were monitored three times daily and assessed using a defined mortality-endpoint, where mice displaying three or more of the limiting clinical signs stated in Home Office Project Licence PPL 70/7661 were culled.

lung gene expression = test: Affymetrix GeneChip lung gene expression in S. Pneumoniae-infected mice; format: in vivo; details: lungs of S. Pneumoniae-infected mice at various timepoints after infection; genes with minimum 1.5 fold-change, p<0.05; n=6
Procedure: as §1
Each band corresponds to a single probe and intensity signifies fold change, as indicated in the legend.

## CC(C)N1CCN(Cc2cnc(-c3cc(-c4cccc5[nH]ccc45)cc4[nH]ncc34)o2)CC1 [6-(1H-indol-4-yl)-4-(5-{[4-(1-methylethyl)-1-piperazinyl]methyl}-1,3-oxazol-2-yl)-1H-indazole hydrochloride]
[1]
  defined mortality-endpoint (percentage survival) compared to vehicle controls: reduced a defined mortality-endpoint
Lung gene expression
  lung gene expression compared to vehicle controls: altered lung gene expression

From patent publication US20160263109A1, “P13K INHIBITOR FOR TREATMENT OF RESPIRATORY DISEASE” (GLAXOSMITHKLINE INTELLECTUAL PROPERTY DEVELOPMENT LIMITED, priority 2013, published 2016)
